These are literature values, as cited in US8287898B2, “Compositions and methods for body weight management” (The Procter & Gamble Company, priority 2000, dated 2012).

Read-outs that look alike come from different tables or passages of the source.

For data set [1] the following is noted: sham feeding rat model.
The conditions of data set [2]: jejunally infused neat, 0.2 mL/hr for seven hours, rats.
For data set [3] the following is noted: solutions infused in the duodenum or mid-gut (jejunum), or into the colon; rats, three hours of feeding.

As for `CCCCC/C=C\C/C=C\CCCCCCCC(=O)O` [linoleic acid], the total caloric intake entry is recorded as “reduce total caloric intake” in data set [1] (duodenally infused emulsion) and “do not” in data set [1] (ileal infusion). For the same compound, the “total daily caloric intake” value in data set [2] was “significantly reduce”.

Consider `CC/C=C\C/C=C\C/C=C\CCCCCCCC(=O)O` [linolenic], for which the total caloric intake result in data set [1] (duodenally infused emulsion) is given as “somewhat less effective”.

`CCCCCCCC/C=C\CCCCCCCC(=O)O` [oleic acid]: in data set [1] (duodenally infused emulsion), the total caloric intake result is reported as “somewhat less effective”. Also, in data set [2], the “total daily caloric intake” value is “significantly reduce”.

For the compound `N[C@@H](Cc1ccccc1)C(=O)O` [phenylalanine], the total caloric intake entry in data set [3] is listed as “suppressed total caloric intake”.

With `N[C@@H](Cc1c[nH]c2ccccc12)C(=O)O` [tryptophan], the total caloric intake result in data set [3] is reported as “suppressed total caloric intake”.
